From patent publication US20170267708A1, “C-4" POSITION SUBSTITUTED MACROLIDE DERIVATIVE” (priority 2014, published 2017)
Values after ≈ are worked out from the molar mass of the structure shown. Read-outs that look alike come from different tables or passages of the source.

Columns and labels:
[1] = test system: 39 kinds of clinically isolated strains of Hemophilus influenzae; assay: Hemophilus influenzae susceptibility test; format: cell-based; conditions: 39 clinically isolated strains
Experimental: (§1) In vitro antibacterial activities of the compound of the present invention, the compound represented by the formula [1] of Example 1, against various test bacteria were measured according to the microbroth dilution method (CLSI method). The activities of the compound of Reference Example 4 represented by the formula [3] was similarly measured. The MIC values (minimum inhibitory concentration, μg/ml) for the test bacteria of the bacterium symbols A, B, C, D, E, F, G, H, I, J, K, and L are shown in Table 2.
Drug susceptibility of 39 kinds of clinically isolated strains of Hemophilus influenzae was evaluated in the same manner as that of Test Example 1.

[2] = test system: Streptococcus pneumoniae 1101 strain; assay: MIC against the strain of Test Example 4; format: cell-based; conditions: notes for FIG. 2, erm(B) strain
Experimental: (§2) The notes for FIG. 2 are as follows. As for significant difference relative to the medium administration group, significance was determined by the Steel test, and the symbols * and ** mean p<0.05 and p<0.01, respectively.

[3] = test system: Streptococcus pneumoniae 1028 strain; assay: MIC against the strain of Test Example 5; format: cell-based; conditions: notes for FIG. 3, mef(A) strain
Experimental: (§3) The notes for FIG. 3 are as follows. As for significant difference relative to the medium administration group, significance was determined by the Steel test, and the symbols * and ** mean p<0.05 and p<0.01, respectively.

[4] = test system: Streptococcus pneumoniae 1101 strain; assay: Therapeutic effect test in erythromycin resistant pneumococcus (harboring erm(B) gene)-infected animals; format: in vivo, mice; conditions: for number of living cells in the lung: CBA/JN mice, 3 days after inoculation, average±standard error
Experimental: As a bacterium, the Streptococcus pneumoniae 1101 strain (clinically isolated strain) was used. A frozen stock of the strain used was added to the Todd Hewitt broth supplemented with 30 vol % inactivated horse serum, and the bacterium was cultured until the turbidity (OD600) became about 0.3. The culture medium was diluted with the Todd Hewitt broth supplemented with 30 vol % inactivated horse serum to prepare a bacterial suspension for inoculation. The bacterial suspension for inoculation (0.05 mL each) was intranasally administered to mice (CBA/JN, male, 5 weeks old) for infection. The inoculated bacterial amount was 7.50×10^4 CFU/mouse, or 1.65×10^5 CFU/mouse. From the next day of the inoculation, the compound of Example 1 represented by the formula [1] […] The numbers of live cells in the lung observed 3 days after the inoculation are shown in FIG. 2 (each group consisted of 5 or 6 mice, average±standard error).
as §2

[5] = test system: Haemophilus influenzae ATCC 43095 strain; assay: Therapeutic effectiveness in Haemophilus influenzae-infected animals; format: in vivo, mice; conditions: for number of living cells in the lung: ICR mice, 3 days after inoculation, average±standard error
Experimental: As a bacterium, the Haemophilus influenzae ATCC 43095 strain (bacterium symbol A) was used. Cells of the bacterium cultured overnight on a chocolate agar medium were collected, suspended in a Hemophilus susceptibility test medium or the brain heart infusion medium supplemented with Fildes Enrichment, and then cultured overnight. The culture was diluted with the Hemophilus susceptibility test medium or the brain heart infusion medium supplemented with Fildes Enrichment to prepare a bacterial suspension for inoculation. The bacterial suspension for inoculation (0.05 mL each) was intratracheobronchially administered to mice (ICR, male, 4 weeks old) for infection. The inoculated bacterial amount was 2.25×10^6 CFU/mouse, or 9.00×10^5 CFU/mouse. From the next day of the inoculation, the compound represented by the formula [1] of Example 1 (100 and 200 mg/kg) or a medium (mixture of equivalent volumes of a 0.1 mol/L lactobionic acid solution and a 0.5 w/v % sodium hydrogencarbonate solution) was orally administered to the mice once a day for 2 days. The numbers of living cells in the lung observed 3 days after the inoculation are shown in FIG. 1 (each group consisted of 6 mice, average±standard error).
The notes for FIG. 1 are as follows. As for significant difference relative to the medium administration group, significance was determined by the Steel test, and the symbols * and ** mean p<0.05 and p<0.01, respectively. The MIC value of the compound of Example 1 represented by the formula [I] was 4 μg/mL, and the MIC value of the compound of Reference Example 4 represented by the formula [3] was 4 μg/mL.
In the following descriptions, the numbers of living cells in the lung as the test results may be represented in terms of common logarithm of number of live cells in the lung (CFU/lung) (common logarithm is henceforth indicated as log).

[6] = test system: Streptococcus pneumoniae MSC07465; assay: In vitro antibacterial activity, microbroth dilution (CLSI method); format: cell-based; conditions: bacterium symbol E
Experimental: as §1

[7] = test system: Streptococcus aureus ATCC29213; assay: as above; format: cell-based; conditions: bacterium symbol L
Experimental: as §1

[8] = test system: Streptococcus pneumoniae MSC08607; assay: as above; format: cell-based; conditions: bacterium symbol F
Experimental: as §1

[9] = test system: Haemophilus influenzae NSC17960; assay: as above; format: cell-based; conditions: bacterium symbol C
Experimental: as §1

[10] = test system: Streptococcus pyogenes MSC07812; assay: as above; format: cell-based; conditions: bacterium symbol J
Experimental: as §1

[11] = test system: Streptococcus pneumoniae ATCC49619; assay: as above; format: cell-based; conditions: bacterium symbol D
Experimental: as §1

[12] = test system: Streptococcus pyogenes MSC07811; assay: as above; format: cell-based; conditions: bacterium symbol K
Experimental: as §1

[13] = test system: Haemophilus influenzae MSC17946; assay: as above; format: cell-based; conditions: bacterium symbol B
Experimental: as §1

[14] = test system: Streptococcus pyogenes ATCC12344; assay: as above; format: cell-based; conditions: bacterium symbol I
Experimental: as §1

[15] = test system: Haemophilus influenzae ATCC43095; assay: as above; format: cell-based; conditions: for MIC: Haemophilus influenzae, ATCC43095
Experimental: as §1

[16] = test system: Streptococcus pneumoniae ATCC700904; assay: as above; format: cell-based; conditions: bacterium symbol G
Experimental: as §1

[17] = test system: Streptococcus pneumoniae MSC07365; assay: as above; format: cell-based; conditions: bacterium symbol H
Experimental: as §1

[18] = test system: Streptococcus pneumoniae 1028 strain; assay: Therapeutic effect test in erythromycin resistant pneumococcus (harboring mef(A) gene)-infected animals; format: in vivo, mice; conditions: for number of living cells in the lung: CBA/JN mice, 3 days after inoculation
Experimental: As a bacterium, the Streptococcus pneumoniae 1028 strain (clinically isolated strain) was used. A frozen stock of the strain used was added to the Todd Hewitt broth supplemented with 30 vol % inactivated horse serum, and the bacterium was cultured until the turbidity (OD600) became about 0.3. The culture was diluted with the Todd Hewitt broth supplemented with 30 vol % inactivated horse serum to prepare a bacterial suspension for inoculation. The bacterial suspension for inoculation (0.05 mL each) was intranasally administered to mice (CBA/JN, male, 5 weeks old) for infection. The inoculated bacterial amount was 3.45×10^4 CFU/mouse, or 3.90×10^4 CFU/mouse. From the next day of the inoculation, the compound of Example 1 represented by the formula [1] (3, 10, 30 and 100 mg/kg) or a medium (mixture of equivalent volumes of a 0.1 mol/L lactobionic acid solution and a 0.5 w/v % sodium hydrogencarbonate solution) was orally administered to the mice once a day for 2 days. The numbers of living cells in the lung observed 3 days after the inoculation are shown in FIG. 3 (each group consisted of 5 or 6 mice, average±standard error).
as §3

[19] = 30 mg/kg orally once a day for 2 days
[20] = 100 mg/kg orally once a day for 2 days
[21] = 200 mg/kg orally once a day for 2 days
[22] = 10 mg/kg orally once a day for 2 days, average±standard error
[23] = 30 mg/kg orally once a day for 2 days, 1.30 = lower than detection limit
[24] = 100 mg/kg orally once a day for 2 days, 1.30 = lower than detection limit

CCNC(=O)CN1C(=O)O[C@]2(C)[C@@H](CC)OC(=O)[C@H](C)[C@@H](O[C@H]3C[C@@](C)(OC)[C@@](O)(CN(C)CCN(C(C)C)C(C)C)[C@H](C)O3)[C@H](C)[C@@H](O[C@@H]3O[C@H](C)C[C@H](N(C)C)[C@H]3O)[C@@](C)(OC)C[C@@H](C)C(=O)[C@H](C)[C@@H]12 [Example 1]
MIC50 [1]: 4 µg/mL (≈ 3.89 µM) | MIC90 [1]: 8 µg/mL (≈ 7.78 µM) | MIC value [2]: 0.25 µg/mL (≈ 0.243 µM) | MIC value [3]: 0.12 µg/mL (≈ 0.117 µM) | number of living cells in the lung [4, 19]: 4.14±0.19 log (CFU/lung) | number of living cells in the lung [4, 20]: 2.28±0.24 log (CFU/lung) | therapeutic effectiveness relative to the compound of Reference Example 4 ([4]; overall conclusion of Test Example 4): superior | number of living cells in the lung [5, 20]: 3.54±0.49 log (CFU/lung) | number of living cells in the lung [5, 21]: 2.83±0.53 log (CFU/lung) | therapeutic effectiveness relative to the compound of Reference Example 4 ([5]; overall conclusion of Test Example 3): comparable | MIC (minimum inhibitory concentration) [6]: 0.03 µg/mL (≈ 0.0292 µM) | MIC (minimum inhibitory concentration) [7]: 1 µg/mL (≈ 0.972 µM) | MIC (minimum inhibitory concentration) [8]: 0.06 µg/mL (≈ 0.0583 µM) | MIC (minimum inhibitory concentration) [9]: 4 µg/mL (≈ 3.89 µM) | MIC (minimum inhibitory concentration) [10]: 0.12 µg/mL (≈ 0.117 µM) | MIC (minimum inhibitory concentration) [11]: 0.06 µg/mL (≈ 0.0583 µM) | MIC (minimum inhibitory concentration) [12]: 2 µg/mL (≈ 1.94 µM) | MIC (minimum inhibitory concentration) [13]: 8 µg/mL (≈ 7.78 µM) | MIC (minimum inhibitory concentration) [14]: 0.06 µg/mL (≈ 0.0583 µM) | MIC (minimum inhibitory concentration) ([15]; bacterium symbol A): 4 µg/mL (≈ 3.89 µM) | MIC value ([15]; notes for FIG. 1, strain of Test Example 3): 4 µg/mL (≈ 3.89 µM) | MIC (minimum inhibitory concentration) [16]: 0.12 µg/mL (≈ 0.117 µM) | MIC (minimum inhibitory concentration) [17]: 4 µg/mL (≈ 3.89 µM) | number of living cells in the lung ([18]; 3 mg/kg orally once a day for 2 days, average±standard error): 6.45±0.18 log (CFU/lung) | number of living cells in the lung [18, 22]: 1.30±0.00 log (CFU/lung) | number of living cells in the lung [18, 23]: 1.30±0.00 log (CFU/lung) | number of living cells in the lung [18, 24]: 1.30±0.00 log (CFU/lung) | therapeutic effectiveness relative to the compound of Reference Example 4 ([18]; overall conclusion of Test Example 5): superior

CC[C@H]1OC(=O)[C@H](C)[C@@H](O[C@H]2C[C@@](C)(OC)[C@@](O)(CN(C)CCN(CC)CC)[C@H](C)O2)[C@H](C)[C@@H](O[C@@H]2O[C@H](C)C[C@H](N(C)C)[C@H]2O)[C@@](C)(OC)C[C@@H](C)C(=O)[C@H](C)[C@H]2N(CCCS(C)(=O)=O)C(=O)O[C@]12C [Reference Example 4, reference compound]
MIC50 [1]: 4 µg/mL (≈ 3.86 µM) | MIC90 [1]: 8 µg/mL (≈ 7.73 µM) | MIC ([2]; Streptococcus pneumoniae, 1101STRAIN): 0.12 µg/mL (≈ 0.116 µM) | MIC ([3]; Streptococcus pneumoniae, 1028STRAIN): 0.03 µg/mL (≈ 0.029 µM) | number of living cells in the lung ([4]; 10 mg/kg orally once a day for 2 days): 5.86±0.12 log (CFU/lung) | number of living cells in the lung [4, 19]: 5.22±0.16 log (CFU/lung) | number of living cells in the lung [4, 20]: 3.65±0.36 log (CFU/lung) | number of living cells in the lung [5, 20]: 4.37±0.27 log (CFU/lung) | number of living cells in the lung [5, 21]: 2.53±0.23 log (CFU/lung) | MIC ([6]; Streptococcus pneumoniae, MSC07465, read-out: MIC (minimum inhibitory concentration)): 0.03 µg/mL (≈ 0.029 µM) | MIC ([7]; Streptococcus, ATCC29213, read-out: MIC (minimum inhibitory concentration)): 0.5 µg/mL (≈ 0.483 µM) | MIC ([8]; Streptococcus pneumoniae, MSC08607, read-out: MIC (minimum inhibitory concentration)): 0.06 µg/mL (≈ 0.0579 µM) | MIC ([9]; Haemophilus influenzae, NSC17960, read-out: MIC (minimum inhibitory concentration)): 4 µg/mL (≈ 3.86 µM) | MIC ([10]; Streptococcus pyogenes, MSC07812, read-out: MIC (minimum inhibitory concentration)): 0.25 µg/mL (≈ 0.241 µM) | MIC ([11]; Streptococcus pneumoniae, ATCC49619, read-out: MIC (minimum inhibitory concentration)): 0.03 µg/mL (≈ 0.029 µM) | MIC ([12]; Streptococcus pyogenes, MSC07811, read-out: MIC (minimum inhibitory concentration)): 4 µg/mL (≈ 3.86 µM) | MIC ([13]; Haemophilus influenzae, MSC17946, read-out: MIC (minimum inhibitory concentration)): 8 µg/mL (≈ 7.73 µM) | MIC ([14]; Streptococcus pyogenes, ATCC12344, read-out: MIC (minimum inhibitory concentration)): 0.06 µg/mL (≈ 0.0579 µM) | MIC ([15]; bacterium symbol A, read-out: MIC (minimum inhibitory concentration)): 4 µg/mL (≈ 3.86 µM) | MIC ([15]; notes for FIG. 1, strain of Test Example 3, read-out: MIC value): 4 µg/mL (≈ 3.86 µM) | MIC ([16]; Streptococcus pneumoniae, ATCC700904, read-out: MIC (minimum inhibitory concentration)): 0.12 µg/mL (≈ 0.116 µM) | MIC ([17]; Streptococcus pneumoniae, MSC07365, read-out: MIC (minimum inhibitory concentration)): 4 µg/mL (≈ 3.86 µM) | number of living cells in the lung [18, 22]: 5.67±0.38 log (CFU/lung) | number of living cells in the lung [18, 23]: 1.30±0.00 log (CFU/lung) | number of living cells in the lung [18, 24]: 1.30±0.00 log (CFU/lung)
